Non-standard residues stand in square brackets, D forms with d. Residues, ends and D or L forms follow the SMILES beside them. NMeH = CN[C@@H](Cc1c[nH]cn1)C(=O)O; Nle = CCCC[C@H](N)C(=O)O

The target in one test is skeletal muscle myosin-supported prothrombin activation by factors Xa and Va (Homo sapiens, UniProt P00742). As to the kind of experiment: Assay 1A: prothrombin activation by factor Xa/factor Va/myosin in purified system. The following applies: purified system, prothrombin activation with myosin; read-out: 1A (+ myosin) IC50. The test is classed as biochemical, human factors Xa and Va; rabbit skeletal muscle myosin.
skeletal muscle myosin-supported prothrombin activation by factors Xa and Va, sequence (P00742 41-179): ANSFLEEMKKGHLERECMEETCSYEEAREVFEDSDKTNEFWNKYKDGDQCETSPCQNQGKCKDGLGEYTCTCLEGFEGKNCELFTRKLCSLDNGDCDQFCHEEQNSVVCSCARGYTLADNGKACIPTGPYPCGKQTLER
skeletal muscle myosin-supported prothrombin activation by factors Xa and Va, sequence (P00742 235-488): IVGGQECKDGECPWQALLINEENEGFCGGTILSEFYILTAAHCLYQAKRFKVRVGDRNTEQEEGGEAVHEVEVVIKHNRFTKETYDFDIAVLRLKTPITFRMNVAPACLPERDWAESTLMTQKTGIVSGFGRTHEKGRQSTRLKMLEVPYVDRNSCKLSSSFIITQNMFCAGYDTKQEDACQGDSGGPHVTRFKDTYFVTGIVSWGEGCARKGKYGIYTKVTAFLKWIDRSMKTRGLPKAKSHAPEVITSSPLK
skeletal muscle myosin-supported prothrombin activation by factors Xa and Va, sequence (P12259 29-737 partner): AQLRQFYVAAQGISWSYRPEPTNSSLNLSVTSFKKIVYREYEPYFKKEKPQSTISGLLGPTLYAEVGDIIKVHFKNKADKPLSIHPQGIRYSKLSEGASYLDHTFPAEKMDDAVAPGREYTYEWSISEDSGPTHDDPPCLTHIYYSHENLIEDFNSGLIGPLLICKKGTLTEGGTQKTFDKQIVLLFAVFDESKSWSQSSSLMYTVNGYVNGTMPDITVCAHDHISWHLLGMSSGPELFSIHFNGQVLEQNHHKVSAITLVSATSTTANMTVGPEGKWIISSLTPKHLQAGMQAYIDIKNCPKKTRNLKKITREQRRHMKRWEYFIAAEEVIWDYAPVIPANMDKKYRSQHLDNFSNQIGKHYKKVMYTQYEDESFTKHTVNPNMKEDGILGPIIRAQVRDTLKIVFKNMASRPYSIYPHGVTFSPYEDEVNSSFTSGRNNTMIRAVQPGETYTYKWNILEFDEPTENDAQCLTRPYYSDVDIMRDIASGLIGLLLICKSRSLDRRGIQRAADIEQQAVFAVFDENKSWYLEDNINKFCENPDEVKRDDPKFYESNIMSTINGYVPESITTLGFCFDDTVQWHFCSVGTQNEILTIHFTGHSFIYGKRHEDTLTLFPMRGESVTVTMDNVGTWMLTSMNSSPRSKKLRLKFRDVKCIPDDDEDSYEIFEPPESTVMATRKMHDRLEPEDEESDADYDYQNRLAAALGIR
skeletal muscle myosin-supported prothrombin activation by factors Xa and Va, sequence (P12259 1574-2224 partner): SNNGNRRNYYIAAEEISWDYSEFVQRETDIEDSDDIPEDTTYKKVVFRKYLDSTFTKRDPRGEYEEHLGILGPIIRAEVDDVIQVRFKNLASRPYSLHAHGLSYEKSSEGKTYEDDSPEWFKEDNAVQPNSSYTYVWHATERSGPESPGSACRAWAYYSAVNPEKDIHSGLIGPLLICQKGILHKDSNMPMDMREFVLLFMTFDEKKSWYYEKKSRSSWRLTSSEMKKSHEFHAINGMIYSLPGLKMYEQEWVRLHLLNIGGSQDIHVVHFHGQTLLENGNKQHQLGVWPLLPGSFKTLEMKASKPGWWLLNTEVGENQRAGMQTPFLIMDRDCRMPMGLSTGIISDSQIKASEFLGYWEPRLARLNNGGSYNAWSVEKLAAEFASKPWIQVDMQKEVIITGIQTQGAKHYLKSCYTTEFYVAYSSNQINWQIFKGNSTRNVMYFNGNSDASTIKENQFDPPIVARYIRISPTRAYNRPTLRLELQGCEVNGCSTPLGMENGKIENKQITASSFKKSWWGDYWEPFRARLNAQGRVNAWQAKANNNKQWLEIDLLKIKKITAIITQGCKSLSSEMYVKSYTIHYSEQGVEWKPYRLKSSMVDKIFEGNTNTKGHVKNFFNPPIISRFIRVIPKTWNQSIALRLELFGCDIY
Turning to `CCCC[C@H](NC(=O)[C@H](Cc1c[nH]c2ccccc12)NC(=O)[C@@H]1CCCN1C(=O)[C@H](Cc1c[nH]c2ccccc12)NC(=O)[C@H](Cc1c[nH]cn1)N(C)C(=O)[C@H](CCCCN)NC(=O)[C@@H](NC(=O)[C@H](CC(N)=O)NC(=O)[C@H](CCCC)NC(=O)[C@H](Cc1ccccc1)NC(=O)[C@H](CO)NC(=O)[C@H](CCCNC(=N)N)NC(=O)[C@@H](NC(=O)[C@H](CC(N)=O)NC(=O)[C@H](Cc1ccc(O)cc1)NC(=O)[C@H](CCC(N)=O)NC(=O)[C@@H](NC(=O)[C@H](CS)NC(=O)[C@H](Cc1ccccc1)NC(=O)[C@@H](NC(=O)[C@H](C)N)[C@@H](C)CC)[C@@H](C)CC)[C@@H](C)CC)C(C)C)C(=O)N[C@@H](CCCCN)C(N)=O` [HC200] (H-AIFCIQYNIRSF[Nle]NVK[NMeH]WPW[Nle]K-NH2; N-terminus assumed), the IC50 is 1400 nM.

The same test, now with this note: purified system; skeletal muscle myosin, factor Va 5 nM, factor Xa 0.2 nM, prothrombin 0.75 μM, 10 min; read-out: 1A (+myosin).
Take `CC[C@H](C)[C@H](NC(=O)[C@H](C)N)C(=O)N[C@@H](Cc1ccccc1)C(=O)N[C@@H](CS)C(=O)N[C@H](C(=O)N[C@@H](CCC(N)=O)C(=O)N[C@@H](Cc1ccc(O)cc1)C(=O)N[C@@H](CC(N)=O)C(=O)N[C@H](C(=O)N[C@@H](CCCNC(=N)N)C(=O)N[C@@H](CO)C(=O)N[C@@H](C)C(=O)N[C@@H](CCSC)C(=O)N[C@@H](CC(N)=O)C(=O)N[C@H](C(=O)N[C@@H](CCCCN)C(=O)N[C@@H](Cc1c[nH]cn1)C(=O)N[C@@H](Cc1c[nH]c2ccccc12)C(=O)N1CCC[C@H]1C(=O)N[C@@H](Cc1c[nH]c2ccccc12)C(=O)N[C@@H](CCSC)C(=O)N[C@@H](CCCCN)C(N)=O)C(C)C)[C@@H](C)CC)[C@@H](C)CC` [HC127] (H-AIFCIQYNIRSAMNVKHWPWMK-NH2; N-terminus assumed): the IC50 came out at 5900 nM. Same read-out and setting: in the case of `CC[C@H](C)[C@H](NC(=O)[C@H](C)N)C(=O)N[C@@H](Cc1ccccc1)C(=O)N[C@@H](CS)C(=O)N[C@H](C(=O)N[C@@H](CCC(N)=O)C(=O)N[C@@H](Cc1ccc(O)cc1)C(=O)N[C@@H](C)C(=O)N[C@H](C(=O)N[C@@H](CCCNC(=N)N)C(=O)N[C@@H](CO)C(=O)N[C@@H](Cc1ccccc1)C(=O)N[C@@H](CCSC)C(=O)N[C@@H](CC(N)=O)C(=O)N[C@H](C(=O)N[C@@H](CCCCN)C(=O)N[C@@H](Cc1c[nH]cn1)C(=O)N[C@@H](Cc1c[nH]c2ccccc12)C(=O)N1CCC[C@H]1C(=O)N[C@@H](Cc1c[nH]c2ccccc12)C(=O)N[C@@H](CCSC)C(=O)N[C@@H](CCCCN)C(N)=O)C(C)C)[C@@H](C)CC)[C@@H](C)CC` [HC123] (H-AIFCIQYAIRSFMNVKHWPWMK-NH2; N-terminus assumed) it was 600 nM; in that of `CC[C@H](C)[C@H](NC(=O)[C@H](C)N)C(=O)N[C@@H](Cc1ccccc1)C(=O)N[C@@H](CS)C(=O)N[C@H](C(=O)N[C@@H](CCC(N)=O)C(=O)N[C@@H](Cc1ccc(O)cc1)C(=O)N[C@@H](CC(N)=O)C(=O)N[C@H](C(=O)N[C@@H](CCCNC(=N)N)C(=O)N[C@@H](CO)C(=O)N[C@@H](Cc1ccccc1)C(=O)N[C@@H](CCSC)C(=O)N[C@@H](CC(N)=O)C(=O)N[C@H](C(=O)N[C@@H](C)C(=O)N[C@@H](Cc1c[nH]cn1)C(=O)N[C@@H](Cc1c[nH]c2ccccc12)C(=O)N1CCC[C@H]1C(=O)N[C@@H](Cc1c[nH]c2ccccc12)C(=O)N[C@@H](CCSC)C(=O)N[C@@H](CCCCN)C(N)=O)C(C)C)[C@@H](C)CC)[C@@H](C)CC` [HC131] (H-AIFCIQYNIRSFMNVAHWPWMK-NH2; N-terminus assumed), 2200 nM; in that of `CC[C@H](C)[C@H](NC(=O)[C@H](C)N)C(=O)N[C@@H](Cc1ccccc1)C(=O)N[C@@H](CS)C(=O)N[C@H](C(=O)N[C@@H](CCC(N)=O)C(=O)N[C@@H](Cc1ccc(O)cc1)C(=O)N[C@@H](CC(N)=O)C(=O)N[C@H](C(=O)N[C@@H](CCCNC(=N)N)C(=O)N[C@@H](CO)C(=O)N[C@@H](Cc1ccccc1)C(=O)N[C@@H](CCSC)C(=O)N[C@@H](CC(N)=O)C(=O)N[C@@H](C)C(=O)N[C@@H](CCCCN)C(=O)N[C@@H](Cc1c[nH]cn1)C(=O)N[C@@H](Cc1c[nH]c2ccccc12)C(=O)N1CCC[C@H]1C(=O)N[C@@H](Cc1c[nH]c2ccccc12)C(=O)N[C@@H](CCSC)C(=O)N[C@@H](CCCCN)C(N)=O)[C@@H](C)CC)[C@@H](C)CC` [HC130] (H-AIFCIQYNIRSFMNAKHWPWMK-NH2; N-terminus assumed), 2100 nM. Still for that read-out and setting: to `CC[C@H](C)[C@H](NC(=O)[C@H](C)N)C(=O)N[C@@H](Cc1ccccc1)C(=O)N[C@@H](CS)C(=O)N[C@@H](C)C(=O)N[C@@H](CCC(N)=O)C(=O)N[C@@H](Cc1ccc(O)cc1)C(=O)N[C@@H](CC(N)=O)C(=O)N[C@H](C(=O)N[C@@H](CCCNC(=N)N)C(=O)N[C@@H](CO)C(=O)N[C@@H](Cc1ccccc1)C(=O)N[C@@H](CCSC)C(=O)N[C@@H](CC(N)=O)C(=O)N[C@H](C(=O)N[C@@H](CCCCN)C(=O)N[C@@H](Cc1c[nH]cn1)C(=O)N[C@@H](Cc1c[nH]c2ccccc12)C(=O)N1CCC[C@H]1C(=O)N[C@@H](Cc1c[nH]c2ccccc12)C(=O)N[C@@H](CCSC)C(=O)N[C@@H](CCCCN)C(N)=O)C(C)C)[C@@H](C)CC` [HC120] (H-AIFCAQYNIRSFMNVKHWPWMK-NH2; N-terminus assumed) belongs 5200 nM.

For the compound `CC[C@H](C)[C@H](NC(=O)[C@H](C)N)C(=O)N[C@@H](Cc1ccccc1)C(=O)N[C@@H](CS)C(=O)N[C@H](C(=O)N[C@@H](CCC(N)=O)C(=O)N[C@@H](Cc1ccc(O)cc1)C(=O)N[C@@H](CC(N)=O)C(=O)N[C@H](C(=O)N[C@@H](CCCNC(=N)N)C(=O)N[C@@H](CO)C(=O)N[C@@H](Cc1ccccc1)C(=O)N[C@@H](C)C(=O)N[C@@H](CC(N)=O)C(=O)N[C@H](C(=O)N[C@@H](CCCCN)C(=O)N[C@@H](Cc1c[nH]cn1)C(=O)N[C@@H](Cc1c[nH]c2ccccc12)C(=O)N1CCC[C@H]1C(=O)N[C@@H](Cc1c[nH]c2ccccc12)C(=O)N[C@@H](CCSC)C(=O)N[C@@H](CCCCN)C(N)=O)C(C)C)[C@@H](C)CC)[C@@H](C)CC` [HC128] (H-AIFCIQYNIRSFANVKHWPWMK-NH2; N-terminus assumed), the IC50 was 2000 nM. The same measure, in the same setting: to `CC[C@H](C)[C@H](NC(=O)[C@H](C)N)C(=O)N[C@@H](Cc1ccccc1)C(=O)N[C@@H](CS)C(=O)N[C@H](C(=O)N[C@@H](CCC(N)=O)C(=O)N[C@@H](Cc1ccc(O)cc1)C(=O)N[C@@H](CC(N)=O)C(=O)N[C@@H](C)C(=O)N[C@@H](CCCNC(=N)N)C(=O)N[C@@H](CO)C(=O)N[C@@H](Cc1ccccc1)C(=O)N[C@@H](CCSC)C(=O)N[C@@H](CC(N)=O)C(=O)N[C@H](C(=O)N[C@@H](CCCCN)C(=O)N[C@@H](Cc1c[nH]cn1)C(=O)N[C@@H](Cc1c[nH]c2ccccc12)C(=O)N1CCC[C@H]1C(=O)N[C@@H](Cc1c[nH]c2ccccc12)C(=O)N[C@@H](CCSC)C(=O)N[C@@H](CCCCN)C(N)=O)C(C)C)[C@@H](C)CC` [HC124] (H-AIFCIQYNARSFMNVKHWPWMK-NH2; N-terminus assumed) belongs 700 nM.
